Measurements reported in patent EP4793271A1, “NEUROPROTECTIVE AGENT” (National Center of Neurology and Psychiatry, priority 2023, dated 2025).

Experiments:
[1] = tested on: primary cultured cells of mouse fetus-derived dorsal root ganglia (DRGs); assay: Suppression of axonal degeneration after axotomy in DRG explant culture; format: cell-based; details: minimum concentration at which axonal degeneration was suppressed (DI 0.3 or less), 24 hours after axotomy; for minimal effective concentration: Mus musculus, read-out: Evaluation on protection against degeneration
Experimental: The compound of the present invention was studied for its protective effect against axonal injury using primary cultured cells of mouse fetus-derived dorsal root ganglia (DRGs).
DRGs were collected from a fetus derived from an ICR mouse (13.5 days of pregnancy). DRGs were cultured using a plate coated by incubation with 0.1 mg/mL poly-L-lysine at 4°C for 24 hours or longer, washing with PBS, and then incubation with 2.5 µg/mL Cultrex Mouse Laminin I at 37°C for 4 to 6 hours.
One of DRGs collected was plated to each well of the coated 24-well plate. The DRG was cultured in a nicotinamide-free medium for neuron (supplemented with 10% FBS, 1 mM glutamine, 50 ng/mL NGF2.5S, and penicillin-streptomycin) for 24 hours at maximum from the start of culture and then cultured in a nicotinamide-free medium for neuron (supplemented with 2% MACS NeuroBrew-21, 50 ng/mL NGF2.5S, 1% Glutamax, 20 µM uridine, 20 µM 5-fluoro-2'-deoxyuridine, and penicillin-streptomycin) for 7 to 8 days.
The nicotinamide-free medium for neuron was prepared so as to have the same constituents as those of the composition published in a previously reported paper (Brewer et al., J. Neuroscience Research 35: 567-576) except for nicotinamide with reference to this composition.
The test compound is dissolved in DMSO and added to cells such that the final concentration of DMSO is 0.1% (1000-fold dilution). 10 mM, 1 mM, 100 µM, 10 µM, 1 µM, and 100 nM samples of the test compound are prepared and added at a 1000-fold dilution to cells.
Axotomy was carried out by scooping out a cell body portion of the cultured DRG with a chip for a micropipette. The test compound was added at the following concentrations (final concentration: 10 µM, 1 µM, 100 nM, 10 nM, 1 nM, and 100 pM) within 30 minutes after axotomy. The compound was evaluated for its protective effect against axonal degeneration by imaging (Leica DMIL microscope, 20× objective lens) the state of neurites 24 hours after axotomy and evaluating the degree of degeneration. The degree of degeneration was quantified using a program uniquely developed using the R language. A degeneration index (DI) was used as an indicator for the degree of degeneration, and the ratio of the area of a fragmented axon to the total area of axons was calculated as defined in the equation of Expression 2. Suppressed axonal degeneration was evaluated when the value of DI was 0.3 or less. The minimum concentration at which axonal degeneration was suppressed was determined for each compound. Degeneratioin index (DI) = (Degenerated axons)/(All axons) [formula]
The axonal protective activity was evaluated as A ≤ 0.01 µM, 0.01 µM < B ≤ 0.1 µM, and 0.1 µM < C ≤ 1 µM depending on the minimum concentration at which axonal degeneration was suppressed.

[2] = molecular target: T1, nicotinamide phosphoribosyl transferase (NAMPT) (Homo sapiens, UniProt P43490); assay: NAMPT activity measurement (NMN fluorescence detection); format: biochemical; details: NAMPT recombinant protein, 10 µM Nam; for IC50: read-out: Evaluation on NAMPT inhibitory
T1 construct: purchased Medical & Biological Laboratories Co., Ltd. (MBL)
T1 sequence (P43490 whole entry, species assumed): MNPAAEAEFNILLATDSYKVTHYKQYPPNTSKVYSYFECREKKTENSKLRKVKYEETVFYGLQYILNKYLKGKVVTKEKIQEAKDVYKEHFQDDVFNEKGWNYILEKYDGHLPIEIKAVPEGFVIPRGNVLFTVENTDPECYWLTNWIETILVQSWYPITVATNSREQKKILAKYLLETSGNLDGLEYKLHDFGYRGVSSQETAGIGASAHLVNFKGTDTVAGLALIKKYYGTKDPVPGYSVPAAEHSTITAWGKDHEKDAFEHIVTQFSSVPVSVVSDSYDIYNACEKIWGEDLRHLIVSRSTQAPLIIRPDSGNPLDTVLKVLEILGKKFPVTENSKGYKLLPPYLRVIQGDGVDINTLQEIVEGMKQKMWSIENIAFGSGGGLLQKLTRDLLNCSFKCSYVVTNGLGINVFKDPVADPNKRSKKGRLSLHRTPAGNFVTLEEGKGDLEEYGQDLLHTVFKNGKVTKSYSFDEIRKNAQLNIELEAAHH
Experimental: The compound of the present invention was evaluated for the ability to influence the activity of nicotinamide phosphoribosyl transferase (NAMPT) which is an enzyme that metabolizes nicotinamide (Nam), not the target SARM1.
The enzymatic reaction of NAMPT was carried out by adding NAMPT recombinant protein (manufactured by Medical & Biological Laboratories Co., Ltd. (MBL)) to a reaction solution containing the substrate Nam, phosphoribosylpyrophosphate (PRPP), ATP, and the like (composition: […] (pH = 7.4), 2 µM ATP, 0.5 µM PRPP, 0.02% BSA, 2 µM DTT, 1.2 µM MgCl2, and 10 µM Nam). The amount of the reaction product NMN was detected by detecting the fluorescent signal of a fluorescent substance obtained through the reaction of 2-acetylbenzofuran with NMN using SpectraMax M2 (Molecular Devices) (excitation: 421 nm, fluorescence: 480 nm) (Moriya et al, Chemical Communications 2013, 49 11500). The test compound was added at final concentrations of 10 µM, 3 µM, 1 µM, 300 nM, 100 nM, 30 nM, 10 nM, and 3 nM to the NMN synthesis reaction system described above. The NMN-derived fluorescent signal was normalized against a control group and plotted as the function of the test compound concentrations, and the compound was evaluated for its NAMPT inhibitory effect by calculating IC50.
The IC50 value was evaluated as ∘ for ≥1 µM and as Δ for ≥0.1 µM.

hSARM1 = molecular target: T2, hSARM1 (Homo sapiens, UniProt Q6SZW1); assay: Human SARM1 activity measurement in HEK293 cells transiently transfected with ΔN-hSARM1 (PC6 fluorescent probe); format: cell-based; design: expressed in transfected cells; host or cells: HEK293, pcDNA3 expression vector; details: inhibition rate; compound 30 µM; PC6 50 µM; HEK293 cells expressing ΔN-hSARM1; approximately 48 hours from transfection; read-out: Evaluation on hSARM1 inhibitory
T2 sequence (Q6SZW1 28-724): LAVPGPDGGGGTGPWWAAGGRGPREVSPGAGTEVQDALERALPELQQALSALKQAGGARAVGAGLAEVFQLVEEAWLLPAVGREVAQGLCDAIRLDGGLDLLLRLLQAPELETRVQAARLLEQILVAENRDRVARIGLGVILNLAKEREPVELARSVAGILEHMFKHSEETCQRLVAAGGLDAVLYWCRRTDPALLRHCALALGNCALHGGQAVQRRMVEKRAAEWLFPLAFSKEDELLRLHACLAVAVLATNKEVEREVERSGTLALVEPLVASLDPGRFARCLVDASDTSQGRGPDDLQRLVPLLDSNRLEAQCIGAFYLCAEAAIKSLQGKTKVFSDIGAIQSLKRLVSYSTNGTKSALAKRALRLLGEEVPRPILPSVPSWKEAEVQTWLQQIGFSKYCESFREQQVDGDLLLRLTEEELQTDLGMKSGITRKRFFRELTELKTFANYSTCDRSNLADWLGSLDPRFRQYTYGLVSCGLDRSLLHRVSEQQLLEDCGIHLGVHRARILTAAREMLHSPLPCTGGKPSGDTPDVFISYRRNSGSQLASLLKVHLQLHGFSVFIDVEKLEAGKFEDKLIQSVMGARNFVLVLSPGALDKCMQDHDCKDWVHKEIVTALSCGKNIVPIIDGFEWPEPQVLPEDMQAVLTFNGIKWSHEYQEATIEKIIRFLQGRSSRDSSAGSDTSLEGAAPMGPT
Experimental: HEK293 cells cultured in a prepared medium of nicotinamide-free DMEM (Dulbecco's modified Eagle medium) supplemented with 10% FBS (BioSera), a 1% penicillin-streptomycin solution (FUJIFILM Wako Pure Chemical Corp.), 5 μM nicotinamide were inoculated at approximately 50,000 cells/well to a 96-well microplate, and the cells were cultured at 37°C under 5% CO2, transiently transfected on the next day with a pcDNA3 expression vector containing a DNA sequence (SEQ ID NO: 1) deficient in a mitochondrial targeting sequence encoded by an N-terminal 78-base sequence in cDNA encoding human sterile α- and armadillo-motif-containing protein (hSARM1) using PEI MAX(R) reagent (PolySciences Inc.), and forced to express ΔN-hSARM1 (SEQ ID NO: 2). Approximately 8 hours later, PC6, which reacts as a substrate of SARM1-specific base exchange reaction and functions as a fluorescent probe, was added thereto at a final concentration of 50 μM, and intracellular hSARM1 activity was measured (Li et al, eLife 2021 10: e67381). A compound for inhibitory activity evaluation was added at a final concentration of 30 μM at the same time with PC6, while dimethyl sulfoxide (Nacalai Tesque Inc.) was added to samples of a control group at the same time with PC6. The cells were incubated at 37°C under 5% CO2 for approximately 48 hours from transfection, followed by fluorescent signal measurement using SpectraMax M2 (Molecular Devices) (excitation: 405 nm, fluorescence: 525 nm, fluorescence cutoff: 515 nm). Results of this screening are reported as an inhibition rate (%) relative to a negative control defined as follows by using fluorescence intensity measured from a control group without transfection with ΔN-hSARM1 as a background whereas using fluorescence intensity measured from a control group transfected with ΔN-hSARM1 as the negative control. Inhibitory rate (%) = 100-(([…]-Background))/((Signalofthenegativecontrol-Background)) × 100 [formula] The nicotinamide-free medium was prepared so as to have the same composition as that of DMEM having known composition which is generally used in the art except for nicotinamide. […]

| Compound | minimal effective concentration [1] | IC50 [2] | inhibition at 30 µM (hSARM1) | Evaluation on NAMPT inhibitory [2] | Evaluation on protection against degeneration [1] |
| --- | --- | --- | --- | --- | --- |
| O=C(NCc1ccc(NC(=O)c2ccccn2)nc1)c1cccnc1 [Compound 125] | ≤ 0.01 µM | ≥ 100 nM | > 75% | – | – |
| O=C(NCc1ccc(NC(=O)C2CCCCC2)nc1)c1cccnc1 [Compound 113] | ≤ 0.01 µM | – | > 75% | ○ | – |
| O=C(NCc1ccc(CNC(=O)c2ccccc2)nc1)c1cccnc1 [Compound 153] | 0.01 to 0.1 µM | – | > 75% | ○ | – |
| O=C(NCc1ccc(NC(=O)C2CCC2)cc1)c1cccnc1 [compound 109] | ≤ 0.01 µM | – | > 75% | ○ | – |
| O=C(NCc1ccc(CNC(=O)c2cccnc2)nc1)c1cccnc1 [Compound 146] | 0.01 to 0.1 µM | – | > 50% | ○ | – |
| O=C(NCc1ccc(NC(=O)c2cnc3ccccc3c2)nc1)c1cccnc1 [Compound 126] | ≤ 0.01 µM | ≥ 100 nM | > 75% | – | – |
| CCC(CC)C(=O)Nc1ccc(CNC(=O)c2cccnc2)cn1 [Compound 163] | – | – | > 25% | ○ | A (A ≤ 0.01 µM) |
| O=C(NCCCOCCOCCCNC(=O)c1ccc2ncccc2c1)c1cccnc1 [Compound 188] | ≤ 0.01 µM | – | > 25% | ○ | – |
| Cc1ccc(C(=O)Nc2ccc(CNC(=O)/C=C/c3cccnc3)cn2)cc1 [compound 78] | ≤ 0.01 µM | – | > 75% | ○ | – |
| CC(C)(C)OC(=O)NCCCOCCOCCCNC(=O)c1cccnc1 [compound 70] | ≤ 0.01 µM | – | > 50% | ○ | – |
| O=C(NCCOCCOc1ccccc1)c1cccnc1 [compound 98] | 0.01 to 0.1 µM | – | > 10% | ○ | – |
| CC#CC(=O)Nc1ccc(CNC(=O)c2cccnc2)cn1 [Compound 183] | 0.01 to 0.1 µM | ≥ 100 nM | > 50% | – | – |
| O=C(NCCCOCCOCCCNC(=O)c1cnc2ccccc2c1)c1cccnc1 [Compound 185] | 0.1 to 1 µM | – | > 25% | ○ | – |
| CCCC(=O)Nc1ccc(CNC(=O)c2cccnc2)cn1 [Compound 158] | ≤ 0.01 µM | – | > 25% | ○ | – |
| O=C(NCCCOCCOCCCNC(=O)c1cccnc1)c1ccccc1 [Compound 186] | 0.01 to 0.1 µM | – | > 25% | ○ | – |
| CC(C)CC(=O)Nc1ccc(CNC(=O)c2cccnc2)cn1 [Compound 162] | ≤ 0.01 µM | – | > 25% | ○ | – |
| C#CCOc1cncc(C(=O)Nc2ccc(CNC(=O)c3cccnc3)cc2)c1 [compound 67] | ≤ 0.01 µM | ≥ 100 nM | > 75% | – | – |
| O=C(/C=C/c1cccnc1)Nc1cccc(NC(=O)/C=C/c2cccnc2)n1 [compound 59] | – | – | > 25% | ○ | A (A ≤ 0.01 µM) |
| O=C(C#Cc1ccccc1)Nc1ccc(CNC(=O)c2cccnc2)cn1 [Compound 184] | 0.01 to 0.1 µM | – | > 50% | ○ | – |
| C/C(=C\C(=O)NCCOCCNC(=O)/C=C(\C)c1cccnc1)c1cccnc1 [compound 43] | ≤ 0.01 µM | ≥ 100 nM | > 75% | – | – |
| O=C(NCc1ccc(NC(=O)c2ccccc2F)nc1)c1cccnc1 [Compound 133] | ≤ 0.01 µM | – | > 75% | ○ | – |
| O=C(NCc1cccc(CN2Cc3ccccc3C2=O)n1)c1cccnc1 [compound 92] | – | – | > 10% | ○ | – |
| [N-]=[N+]=NCc1cccc(CNC(=O)c2cccnc2)n1 [compound 90] | – | – | > 10% | ○ | – |
